Laboratory results from patent US8110654B2, “T cell epitope peptides of ovarian cancer anti-idiotypic antibody 6B11 and use thereof” (Peking University People;s Hospital, priority 2006, dated 2012).

Tests used:
[1] = test system: CD4 T cells derived from 6B11-CTLs; test: Intracellular cytokines of CD4 T cells by flow cytometry; assay type: cell-based, human; conditions: 6B11-CTLs co-incubated with peptide-loaded DCs
Method: The anti-idiotype antibody 6B11-CTLs were co-incubated respectively with DCs loading VH CDR3 peptides and DCs without loading. The production of intracellular cytokines in CD4 T cells derived from the anti-idiotype antibody 6B11-CTLs was detected by flow cytometry.

HOC1A cells = test: 51Cr release assay, specific CTLs against HOC1A cells; assay type: cell-based; conditions: for killing of HOC1A cells by peptide-CTLs: CTLs stimulated three periods, 4 hours, effector/target 40:1 to 5:1; for killing effect on HOC1A cells, comparison of antigens: T cells stimulated with single peptide 30 μg/ml, or VH CDR3 15 μg/ml plus VL CDR3 15 μg/ml, or 6B11 40 μg/ml; for killing of HOC1A cells after MHC class I molecule blocking: anti-human MHC class I antibodies 1:20 dilution
Description: The freeze-stored autologous lymphocytes were stimulated by DCs loaded with the peptides and KLH, to obtain peptide-specific CTLs (peptide-CTLs). One period consists of 7 days. On Day 3 of every period, 10 U/ml rh IL-2 was supplemented. Finally, peptide-CTLs were obtained after a 3-period stimulation.
6B11-CTLs stimulated for one period were harvested and used as reacting cells in cell proliferation assay, ELISA cytokine assay and IFN-γ ELISPOT assay. 6B11-CTLs and peptide-CTLs stimulated for 3 periods were harvested for use in ^51Cr release assay as effector cells.
6B11-CTLs and peptide-CTLs stimulated for three periods were used as effector cells. T2 cells, HOC1A cells and HLE cells loaded with corresponding peptides were used as target cells. Standard ^51Cr release assay was carried out for 4 hours. Target cells (1×10^6 cells) were placed into 0.5 ml RPMI 1640 culture medium (containing 5% fetal bovine serum). 100 μCi Na2^51CrO4 was added. The labeling reaction was allowed to continue overnight at 37° C. Then the cells were washed by cold RPMI 1640 culture medium (containing 5% fetal bovine serum) for three times to terminate the labeling reaction. Target cells (5×10^3 cells) were placed into 100 μl culture medium and then mixed with an equal volume of effector cells in a 96-well plate. The ratio of effector/target was set as 40:1, 20:1, 10:1 and 5:1. Spontaneous release wells contained target cells and the culture medium, while the maximal release wells contained target cells and corresponding culture medium containing 1% Triton X-100. The plates were gently spun using a plate centrifuge for 2 minutes and then co-incubated at 37° C. under 5% CO2 for 4 hours. The plates were gently spun again. 100 μl of supernatant per well was transferred to a counting tube and labeled as appropriate. The cpm values were determined by a γ counter. All assays were performed in duplicate. The ratio of cpm values of the spontaneous release well to the maximal release well was <20%. Killing ratio (%)=[(mean cpm value of the experimental wells−mean cpm value of the spontaneous release wells)/(mean cpm value of the maximal release wells−mean cpm value of the spontaneous release wells)]×100
For further analyzing the above-mentioned killing effect, the target cells were blocked by applying anti-human MHC class I antibodies, for evaluating the effect of CTL epitope peptides. Firstly, the optimal concentration of MHC class I antibodies was determined to be 1:20 dilution (FIG. 9). […] The killing effect were not disturbed by MHC class I antibodies, i.e., unrelated to the effect of CD8 T cells. […] Its killing effect was disturbed by MHC class I antibodies, which was mainly mediated by CD8 T cells (FIG. 10). […] The former was unrelated to CD8 T cells whereas the latter was mediated by CD8 T cells.
For investigating the specificity and effectiveness of the killing effect of T-cell epitope peptides, the following experiments were carried out. T cells were stimulated by VH CDR3 peptide (30 μg/ml, final concentration), VL CDR 3 peptide (30 μg/ml), VH CDR3 peptide (15 μg/ml) and VL CDR3 peptide (15 μg/ml) as well as anti-idiotype antibody 6B11 (40 μg/ml), resulting in corresponding specific CTLs, which were used as effector cells. HOC1A cells were used as target cells for performing ^51Cr release assay, in order to compare the effectiveness of each antigen in stimulating immune responses. […] The killing effect of the specific CTLs obtained by stimulating with the combination of VH CDR3 peptide and VL CDR3 peptide was even stronger, which indicated a synergic effect between them. The killing effect of them was also stronger than that of 6B11-CTLs (FIG. 12). […] Their effects were more accurate than that of anti-idiotype antibody 6B11.

K562 cells = test: 51Cr release assay, specific CTLs against K562 cells; assay type: cell-based; conditions: non-specific killing
CD4 T cells = test: BrdU cell proliferation assay after magnetic bead sorting of CD4 T cells; assay type: cell-based, human; conditions: reacting cells sorted for CD4 T cells by magnetic beads
Method: All the CDR peptides of anti-idiotype antibody 6B11 (6 peptides) were synthesized artificially. The peptides were screened for Th epitope peptides by cell proliferation assay. Anti-idiotype antibody 6B11-CTLs stimulated for one period were used as reacting cells. DCs loaded with anti-idiotype antibodies and peptides respectively were used as stimulating cells. The reacting cells and the stimulating cells (in the ratio of 10:1) were co-incubated at 37° C. under 5% CO2 for 120 hours and then subject to BrdU ELISA cell proliferation assay. Each well contained 100 μl AIM-V culture medium and 1×10^5 anti-idiotype antibody 6B11-CTLs. Within the last 2 hours during stimulation, 10 μl BrdU labeling solution was added into each well and the fluid in the wells was removed. The cells were dried at 60° C. for 1 hour. 200 μl of FixDenat solution was added into each well. The reaction continued for 30 minutes at 37° C. for fixing DNA in the lymphocytes. Finally, 100 μl BrdU monoclonal antibody was added into each well for 90 minutes. The absorption value at 450 nm was read by an automatic microplate reader after substrate chromogenic reaction for detecting the proliferation of the cells. The group of DCs without loading and the group of phytohaemagglutinin (PHA) were used as negative and positive control respectively. […] Other peptides could not stimulate the proliferation of the reacting cells.
For further analyzing the proliferation of the cells, stimulating cells were blocked by anti-human MHC class II antibodies, for evaluating the effect of Th epitope peptides. Firstly, the optimal application concentration of MHC class II antibodies was determined by experiments to be 1:20 dilution (FIG. 3). […] Other peptides could not trigger cell proliferation, no matter whether MHC class II antibodies were applied or not (FIG. 4). […] The reacting cells were subject to magnetic bead sorting of CD4 T cells.

HLA-A2 = HLA-A2 (Homo sapiens, UniProt P04439, D140Y/D185E/D98H/E176V/E277Q/G131W/G231S/I119V/I121R/I166T/I218V/L300P/L318F/N151K/N90K/P208A/P217A/Q86G/Q94H/R138H/R169H/T345S); test: T2 cell binding assay (HLA class I expression on T2 cells, confocal microscopy); assay type: cell-based; for T2 binding: key: +++: high binding capacity; ++: moderate binding capacity; +: low binding capacity
Method: The peptides obtained by […] method and the VH CDR1 and VL CDR2 region peptides were subject to T2 cell binding assay. T2 cells were co-incubated with each peptides in different concentrations (0.3 μg/ml, 3 μg/ml and 30 μg/ml) for 24 hours and then co-incubated with anti-human MHC class I antibodies. The expression profile of HLA class I molecules on the surface of T2 cells was analyzed by confocal microscopy. […] They were synthesized together with the CDR peptides of the anti-idiotype antibody for screening CTL epitope peptides.

Row | binding capacity in T2 cell binding assay (in words) (HLA-A2; T2 cells co-incubated with peptide 24 hours) | T2 binding (HLA-A2; T2 cells co-incubated with peptide (0.3, 3, 30 μg/ml) 24 hours, HLA class I surface expression) | Sequence | IFN-γ secretion by CD4 T cells [1] | IL-4 level in CD4 T cells [1] | killing of HOC1A cells by peptide-CTLs (HOC1A cells) | killing effect on HOC1A cells, comparison of antigens (HOC1A cells) | killing of HOC1A cells after MHC class I molecule blocking (HOC1A cells) | killing of K562 cells by specific CTLs (K562 cells) | proliferation of sorted CD4 T cells (CD4 T cells)
1 |  |  | IALITTKIAWYFDV (VH CDR3 region peptide) [VH CDR3 peptide] | high level | low level | could kill | could kill | could still kill | could kill | could trigger the proliferation
2 | moderate binding capacity | ++ | SQSTHFPYT (VL CDR3 region peptide) |  |  | could also kill | could kill | significantly inhibited | could not kill | could not trigger the proliferation
